# Data from patent publication US9261497B2, “Method of treating cancer with modulators of SCFSkp2” (New York University, priority 2012, dated 2016).
# Legend:
# [1] = target: T1, MDM2 (Homo sapiens, UniProt Q00987); experiment: MDM2 p53 in vitro ubiquitylation counter-screen; assay type: biochemical; details: 50 μM inhibitor
# T1 construct: purchased Boston Biochem
# Experimental: p53 ubiquitylation was carried out with the p53 Ubiquitylation Kit (Boston Biochem) following manufacturers protocol. Immunoblotting was performed using mouse monoclonal p53 (Santa Cruz) and rabbit polyclonal MDM2 (Santa Cruz).
# [2] = tested on: p27 in 501 Mel cells; experiment: Cycloheximide p27 half-life in 501 Mel cells; assay type: cell-based, human; details: pretreated 16 hours with 10 μM inhibitor, vehicle half-life 1 hour
# Experimental: To assess the mechanism of p27 induction, cycloheximide half-lives were analyzed in 501 Mel cell lines pretreated with each inhibitor (10 μM) or 0.1% DMSO (vehicle). p27 degraded rapidly with a half-life of 1 hour with vehicle, and this rate was slowed by the inhibitors (FIG. 4C). […] Protein levels of Skp2 and Skp1 remained constant.
# Whole cell extracts were prepared and immunoblotted as previously described Dorrello et al., “S6K1- and betaTRCP-mediated Degradation of PDCD4 Promotes Protein Translation and Cell Growth,” Science 314:467-471 (2006), which is hereby incorporated by reference in its entirety. For knockdown of Skp2 or p27, shRNAs were induced with 2 ng/ml doxycycline for 48 hours, with the last 16 hours co-treated with 0.1% Vehicle or 10 μM inhibitors as indicated. For cycloheximide chase, cells were pretreated 16 h with 0.1% Vehicle or 10 μM inhibitors, followed by 20 ng/ml cycloheximide (Sigma) and whole cell extracts collected for each time point. 20 ng/ml cycloheximide (Sigma) was added to each plate and whole cell extract was collected for each time point. Scanning densitometry was performed on immunoblots using Image J software. For cell cycle analysis, cells were treated with 0.1% Vehicle or 10 μM inhibitors for 16 h. […] Signal was detected using the Becton Dickson LSRII flow cytometer and cell cycle profiles were analyzed with FloJo.
# [3] = tested on: T47D; experiment: Cell cycle FACS analysis, T47D; assay type: cell-based, human
# Experimental: (§1) Whole cell extracts were prepared and immunoblotted as previously described Dorrello et al., “S6K1- and betaTRCP-mediated Degradation of PDCD4 Promotes Protein Translation and Cell Growth,” Science 314:467-471 (2006), which is hereby incorporated by reference in its entirety. For knockdown of Skp2 or p27, shRNAs were induced with 2 ng/ml doxycycline for 48 hours, with the last 16 hours co-treated with 0.1% Vehicle or 10 μM inhibitors as indicated. For cycloheximide chase, cells were pretreated 16 h with 0.1% Vehicle or 10 μM inhibitors, followed by 20 ng/ml cycloheximide (Sigma) and whole cell extracts collected for each time point. 20 ng/ml cycloheximide (Sigma) was added to each plate and whole cell extract was collected for each time point. Scanning densitometry was performed on immunoblots using Image J software. […] 1×10^6 cells were fixed in 70% ethanol for 2 h, treated with 200 μg/ml RNase A (Invitrogen) for 30 minutes, and stained with 20 μg/ml Propidium Iodine (Sigma). All samples were assayed in triplicates. Signal was detected using the Becton Dickson LSRII flow cytometer and cell cycle profiles were analyzed with FloJo.
# [4] = tested on: MCF-7; experiment: Cell cycle FACS analysis, MCF-7; assay type: cell-based, human
# Experimental: as §1
# [5] = tested on: JeKo-1; experiment: Cell viability, JeKo-1 mantle cell lymphoma; assay type: cell-based, human; details: 24 hours, CalcuSyn
# Experimental: Viable and metabolically active cells were assayed using CellTiter-Blue (Promega) or PrestoBlue (Invitrogen) following manufacturer's instruction. In a 96 well plate format, 15×10^3 cells were pretreated with 0.1% Vehicle or increasing concentration of inhibitors as noted (for 16 h, 24 h, 48 h, and/or 72 hr) and fluorescence was detected on the SpectraMax M2e (Molecular Devices) after 30 min incubation with dye.
# [6] = tested on: p27 in ECC-1 cells; experiment: Cycloheximide p27 half-life in ECC-1 cells; assay type: cell-based, human; details: 18 h treatment, 20 μM CHX chase, control 3.2 h
# Experimental: The endometrial carcinoma cell line (derived from a well-differentiated endometrioid Type I ECA) ECC-1 cells (ATCC, Manassas, Va.) were plated at a density of 3×10^5/well/6-well plate and grown in DMEM:F12 supplemented with 10% FBS (BioWest, Ocala, Fla.). The cell line was passaged in the laboratory for fewer than 6 months after receipt. […] The protocol was approved by The Institutional Review Board of NYU, informed consent was obtained, and the samples were identified and graded by two surgical pathologists and graded according to the WHO (I-III) for decreased glandular structure and nuclear atypia (Silverberg, “Hyperplasia and Carcinoma of the Endometrium,” Semin. Diagn. Pathol. 5:135-153 (1988), which is hereby incorporated by reference in its entirety). ECAs were plated at a density of 2.2×10^6 cells/6-well Primaria® plates (BD Biosciences, San Jose, Calif.) in McCoys 5A media without phenol red containing 10% charcoal-stripped FBS, 2 mM L-Glutamine (Invitrogen) and antimycotic antibiotic solution (Mediatech, Hendon, Va.). ECC-1 cells and primary ECA cells were grown to 70-80% confluence, synchronized in serum-free media for 24 h, treated with 10 […] Skp2E3LIs for 18 h or as indicated in the figures. […] Whole cell lysates were collected at increasing time points (0, 2, 4, 6 h) and 20 μg protein/well analyzed for p27 by immunoblotting.
# [7] = tested on: p27 in primary ECA cells; experiment: p27 immunoblot in primary endometrial carcinoma (ECA) cells; details: 10 μM for 18 h; for Increase of p27 levels over the Vehicle-treated control: grade I, total cell lysates; for Decrease of p27 in the cytoplasm / Increase of nuclear p27: grade II type I
# Experimental: The endometrial carcinoma cell line (derived from a well-differentiated endometrioid Type I ECA) ECC-1 cells (ATCC, Manassas, Va.) were plated at a density of 3×10^5/well/6-well plate and grown in DMEM:F12 supplemented with 10% FBS (BioWest, Ocala, Fla.). The cell line was passaged in the laboratory for fewer than 6 months after receipt. […] ECAs were plated at a density of 2.2×10^6 cells/6-well Primaria® plates (BD Biosciences, San Jose, Calif.) in McCoys 5A media without phenol red containing 10% charcoal-stripped FBS, 2 mM L-Glutamine (Invitrogen) and antimycotic antibiotic solution (Mediatech, Hendon, Va.).
# For subcellular fractionation, following treatments, cells were separated into nuclear and cytoplasmic fractions using the NE-PER kit (Thermo Scientific), and 10 μg cytoplasmic and nuclear protein fractions were loaded onto SDS-PAGE for immunoblotting. […] The membranes were incubated with peroxidase-conjugated goat anti-rabbit or goat anti-mouse secondary antibodies in TBST (1:2000; Thermo Scientific). […] Protein bands were resolved using the SuperSignal West Dura kit (Thermo Scientific), visualized by exposure to X-ray film (HyBlot; Denville Scientific, Denville, N.J.), and following densitometric scanning (Kodak Logic-100), the protein bands were quantified by normalizing to β-actin and compared to the untreated control, and the values represented by the graphs of relative protein levels compared to actin in each well and shown as % of Vehicle control.
# T1 sequence (Q00987 whole entry, species assumed): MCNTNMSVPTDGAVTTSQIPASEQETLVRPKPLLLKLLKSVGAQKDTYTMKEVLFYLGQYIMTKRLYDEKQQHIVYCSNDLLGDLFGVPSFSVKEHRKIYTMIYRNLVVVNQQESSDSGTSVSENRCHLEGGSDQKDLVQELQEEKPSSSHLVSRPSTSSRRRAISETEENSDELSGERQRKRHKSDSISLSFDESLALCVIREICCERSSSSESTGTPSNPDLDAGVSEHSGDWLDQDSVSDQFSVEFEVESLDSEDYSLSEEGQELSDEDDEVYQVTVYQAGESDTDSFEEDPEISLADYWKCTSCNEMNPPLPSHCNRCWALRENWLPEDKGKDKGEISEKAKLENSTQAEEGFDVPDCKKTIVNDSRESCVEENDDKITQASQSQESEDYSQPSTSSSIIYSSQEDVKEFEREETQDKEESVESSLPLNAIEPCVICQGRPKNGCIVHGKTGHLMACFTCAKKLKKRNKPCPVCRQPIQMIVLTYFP
SMILES,MDM2 activity (p53 poly-ubiquitylation) [1],p27 half-life [2],Cellular phenotype [3],Cellular phenotype [4],IC50 [5],G1 phase ([3]; 5 μM for 16 hours),S phase ([3]; 5 μM for 16 hours),Increase in G2-M phase ([4]; 5 μM C1 for 16 hours),Reduction in G1 phase ([4]; 5 μM C1 for 16 hours),Extension of p27 half-life over cycloheximide (CHX) control [6],Increase of p27 levels over the Vehicle-treated control [7],Decrease of p27 in the cytoplasm [7],Increase of nuclear p27 [7]
O=C(O)COc1ccc(C=C2SC(=O)N(CC(=O)c3ccc(Cl)cc3)C2=O)cc1 [Compound C16],not blocked,3 h,no significant cellular phenotype,no significant cellular phenotype,,,,,,,,,
O=C(O)COc1ccc(Br)cc1C=C1SC(=S)N(Cc2cccnc2)C1=O [Compound C1],not blocked,,,,4.8 µM,an increase in G1 phase,a decrease in S phase,43%,35%,,,,
O=C(NN=Cc1cc(Br)cc(Br)c1O)C(=Cc1ccccc1O)NC(=O)c1ccccc1 [Compound C20],not blocked,5 h,no significant cellular phenotype,no significant cellular phenotype,,,,,,2.7 h,3 fold,approximately 25%,46%
COC(=O)C1=C(C)N(c2ccc(Br)cc2)C(=O)C1=Cc1ccccc1O [Compound C2],not blocked,,no significant cellular phenotype,no significant cellular phenotype,9.3 µM,,,,,6.1 h,1.9 fold,approximately 25%,67%
